pIC50: −log10 of the molar value. In brackets after ≈: the same amount, converted by molar mass. Blank lines part the entries; values can stand above or below the molecule they belong to.
Assays:
[1] = Lipophilicity, logD of compound at pH 7.4 by chromatographic hydrophobicity index method; type: physicochemical; conditions: buffer
BSEP = BSEP (Homo sapiens, UniProt O95342); experiment: (§1) Inhibition of BSEP in cryopreserved sandwich-cultured human hepatocytes by measuring reduction in TCA biliary clearance using taurocholic acid as substrate at 50 uM relative to control; type: cell-based, Hepatocyte; conditions: cryopreserved sandwich-cultured hepatocytes, probe taurocholic acid
BSEP, sequence (O95342 whole entry): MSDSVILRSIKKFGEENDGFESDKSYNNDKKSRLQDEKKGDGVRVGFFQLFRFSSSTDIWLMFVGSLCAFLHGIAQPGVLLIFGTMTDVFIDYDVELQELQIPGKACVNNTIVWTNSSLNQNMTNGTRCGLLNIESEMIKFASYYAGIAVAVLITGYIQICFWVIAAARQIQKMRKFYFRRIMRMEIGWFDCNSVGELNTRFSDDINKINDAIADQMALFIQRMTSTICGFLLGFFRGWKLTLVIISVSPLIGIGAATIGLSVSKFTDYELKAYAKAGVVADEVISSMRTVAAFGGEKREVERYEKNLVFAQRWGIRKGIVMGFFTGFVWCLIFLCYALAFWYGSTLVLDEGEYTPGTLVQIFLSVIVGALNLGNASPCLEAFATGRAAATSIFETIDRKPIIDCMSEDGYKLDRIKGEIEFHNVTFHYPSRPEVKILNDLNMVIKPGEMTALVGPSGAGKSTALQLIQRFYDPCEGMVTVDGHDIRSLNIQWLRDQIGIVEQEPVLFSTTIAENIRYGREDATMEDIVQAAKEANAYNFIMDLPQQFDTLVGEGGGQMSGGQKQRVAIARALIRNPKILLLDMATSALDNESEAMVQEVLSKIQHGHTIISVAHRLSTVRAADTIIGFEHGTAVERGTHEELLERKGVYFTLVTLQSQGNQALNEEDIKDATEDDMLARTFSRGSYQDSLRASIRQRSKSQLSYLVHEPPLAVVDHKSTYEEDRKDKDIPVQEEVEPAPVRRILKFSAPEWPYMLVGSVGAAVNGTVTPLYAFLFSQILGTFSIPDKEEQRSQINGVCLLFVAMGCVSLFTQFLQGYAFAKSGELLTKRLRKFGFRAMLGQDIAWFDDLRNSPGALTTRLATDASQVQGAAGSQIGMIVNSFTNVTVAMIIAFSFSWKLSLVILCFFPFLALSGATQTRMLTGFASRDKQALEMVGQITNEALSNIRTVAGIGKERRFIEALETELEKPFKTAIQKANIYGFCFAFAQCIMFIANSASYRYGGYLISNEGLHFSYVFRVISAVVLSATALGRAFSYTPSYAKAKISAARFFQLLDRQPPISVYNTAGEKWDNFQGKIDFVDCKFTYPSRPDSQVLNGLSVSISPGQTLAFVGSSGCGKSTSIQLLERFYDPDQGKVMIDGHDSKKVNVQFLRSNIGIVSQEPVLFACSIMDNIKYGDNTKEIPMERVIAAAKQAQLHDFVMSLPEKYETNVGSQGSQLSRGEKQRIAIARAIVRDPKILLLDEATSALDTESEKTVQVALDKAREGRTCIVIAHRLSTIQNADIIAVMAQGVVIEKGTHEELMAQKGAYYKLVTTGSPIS

[2] = Metabolic stability in human liver microsomes assessed as intrinsic clearance measured per mg of protein at 0.5 uM measured upto 45 mins in presence of NADPH regenerating system by HPLC-MS/MS analysis; type: ADME, Microsome; conditions: read-out: CLH
[3] = Metabolic stability in female C57BL/6J mouse liver microsomes assessed as intrinsic clearance measured per mg of protein at 0.5 uM measured upto 45 mins in presence of NADPH regenerating system by HPLC-MS/MS analysis; type: ADME, Microsome; conditions: read-out: CLH
[4] = Clearance in female C57BL/6J mouse at 2 mg/kg, iv measured after 24 hrs by UPLC-MS/MS analysis; type: ADME, organism-based; conditions: in vivo
[5] = Total AUClast in female C57BL/6J mouse plasma at 30 mg/kg, po measured after 24 hrs by UPLC-MS/MS analysis; type: ADME, organism-based; conditions: in vivo
Bile salt export pump [6] = biological target: T1, Bile salt export pump (Homo sapiens, UniProt O95342); experiment: Inhibition of BSEP in cryopreserved sandwich-cultured human hepatocytes by measuring reduction in TCA biliary clearance using taurocholic acid as substrate; type: cell-based, Hepatocyte
T1 sequence (O95342 whole entry): as above

[7] = Unbound AUClast in female C57BL/6J mouse lung at 30 mg/kg, po measured after 24 hrs by UPLC-MS/MS analysis; type: ADME, organism-based; conditions: in vivo
[8] = Unbound AUClast in female C57BL/6J mouse plasma at 30 mg/kg, po measured after 24 hrs by UPLC-MS/MS analysis; type: ADME, organism-based; conditions: in vivo
[9] = Oral bioavailability in female C57BL/6J mouse at 2 mg/kg, iv measured after 24 hrs by UPLC-MS/MS analysis; type: ADME, organism-based; conditions: in vivo
[10] = Tlast in female C57BL/6J mouse lung at 30 mg/kg, po measured after 24 hrs by UPLC-MS/MS analysis; type: ADME, organism-based; conditions: in vivo
[11] = Total Cmax in female C57BL/6J mouse lung at 30 mg/kg, po measured after 24 hrs by UPLC-MS/MS analysis; type: ADME, organism-based
[12] = Aqueous solubility of the compound at pH 7.4; type: physicochemical; conditions: buffer
[13] = Total AUClast in female C57BL/6J mouse lung at 30 mg/kg, po measured after 24 hrs by UPLC-MS/MS analysis; type: ADME, organism-based; conditions: in vivo
[14] = Half life in female C57BL/6J mouse at 2 mg/kg, iv measured after 24 hrs by UPLC-MS/MS analysis; type: ADME, organism-based; conditions: in vivo
[15] = Volume of distribution at steady state in female C57BL/6J mouse at 2 mg/kg, iv measured after 24 hrs by UPLC-MS/MS analysis; type: ADME, organism-based; conditions: in vivo, read-out: Vdss
[16] = Tlast in female C57BL/6J mouse plasma at 30 mg/kg, po measured after 24 hrs by UPLC-MS/MS analysis; type: ADME, organism-based; conditions: in vivo
[17] = Unbound Cmax in female C57BL/6J mouse plasma at 30 mg/kg, po measured after 24 hrs by UPLC-MS/MS analysis; type: ADME, organism-based; conditions: in vivo
[18] = biological target: Lysophosphatidic acid receptor 1 (Mus musculus, UniProt P61793); experiment: Antagonist activity at mouse LPA1 transfected in human HeLa cells incubated for 30 mins by FLIPR-based calcium mobilization assay; type: cell-based
Lysophosphatidic acid receptor 1, sequence (P61793 whole entry): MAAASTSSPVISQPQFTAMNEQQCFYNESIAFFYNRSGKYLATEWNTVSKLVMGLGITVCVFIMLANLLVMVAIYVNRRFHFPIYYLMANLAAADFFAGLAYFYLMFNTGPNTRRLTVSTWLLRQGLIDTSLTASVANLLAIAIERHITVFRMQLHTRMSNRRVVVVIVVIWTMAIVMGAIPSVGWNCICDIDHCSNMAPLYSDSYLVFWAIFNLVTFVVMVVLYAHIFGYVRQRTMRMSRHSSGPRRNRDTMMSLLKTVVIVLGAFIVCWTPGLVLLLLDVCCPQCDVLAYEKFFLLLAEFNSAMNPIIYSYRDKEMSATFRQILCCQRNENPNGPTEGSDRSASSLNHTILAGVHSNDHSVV

[19] = Unbound Cmax in female C57BL/6J mouse lung at 30 mg/kg, po measured after 24 hrs by UPLC-MS/MS analysis; type: ADME, organism-based; conditions: in vivo
[20] = Total Cmax in female C57BL/6J mouse plasma at 30 mg/kg, po measured after 24 hrs by UPLC-MS/MS analysis; type: ADME, organism-based
[21] = Drug uptake in mouse lung at 30 mg/kg, po measured upto 24 hrs; type: ADME, organism-based; conditions: in vivo
Mus musculus = experiment: Inhibition of LPA-stimulated histamine release in male CD1 mouse plasma assessed as effective dose administered as po dose pretreated for 30 mins followed by LPA addition measured after 2 mins by enzyme immunoassay; type: functional; conditions: 32 min
Bile salt export pump [22] = biological target: T1, Bile salt export pump; experiment: as §1; type: cell-based, Hepatocyte; conditions: hepatocytes, 50 µM

SMILES: Cc1nc(-c2onc(C)c2NC(=O)O[C@H](C)c2ccccn2)ccc1NC(=O)[C@H]1CCCC[C@@H]1C(=O)O
inhibition at 50 µM (BSEP): 0%
microsomal CLint at 0.5 µM [2]: 0.3 µL/min/mg
microsomal CLint at 0.5 µM [3]: 6 µL/min/mg

SMILES: Cc1noc(-c2ccc(NC(=O)C3CCCC(C(=O)O)C3)cc2)c1NC(=O)O[C@H](C)c1ccccc1Cl (single isomer, unassigned; diastereomer 1)
inhibition (INH) (Bile salt export pump [22]): Not_active

SMILES: Cc1noc(-c2ccc(NC(=O)[C@H]3CCCC[C@@H]3C(=O)O)c(F)n2)c1NC(=O)O[C@H](C)c1ccccc1Cl
chromatographic logD [1]: 1.5
inhibition at 50 µM (BSEP): 50%
solubility [12]: 555 µM (≈ 302 µg/mL)
microsomal CLint at 0.5 µM [2]: 1 µL/min/mg
microsomal CLint at 0.5 µM [3]: 5.4 µL/min/mg

SMILES: Cc1nc(-c2onc(C)c2Nc2cncc(C3CC3)n2)ccc1NC(=O)[C@H]1CCCC[C@@H]1C(=O)O
inhibition (INH) (Bile salt export pump [22]): Not_active

SMILES: Cc1nc(-c2cnn(C)c2NC(=O)O[C@H](C)c2ccccc2Cl)ccc1NC(=O)[C@H]1CCCC[C@@H]1C(=O)O
clearance [4]: 2.99 mL/min/kg
AUClast [5]: 80800 h/ng/mL
pIC50 (Bile salt export pump [6]): < 4.00
chromatographic logD [1]: 1.12
fAUClast [7]: 1071 h/ng/mL
fAUClast [8]: 2621 h/ng/mL
inhibition at 50 µM (BSEP): 28%
bioavailability [9]: 49%
Tlast [10]: 8 h
Cmax [11]: 7950 ng/mL
solubility [12]: 295 µM (≈ 159 µg/mL)
AUClast [13]: 17100 h/ng/mL
half-life [14]: 2.48 h
Vd [15]: 0.35 L/kg
microsomal CLint at 0.5 µM [2]: 7 µL/min/mg
Tlast [16]: 8 h
fCmax [17]: 1758 ng/mL
pIC50 [18]: 7.60
fCmax [19]: 498 ng/mL
microsomal CLint at 0.5 µM [3]: < 2 µL/min/mg
Cmax [20]: 54200 ng/mL

SMILES: CCOc1cncc(Nc2c(C)noc2-c2ccc(NC(=O)[C@H]3CCCC[C@@H]3C(=O)O)c(C)n2)n1
inhibition (INH) (Bile salt export pump [22]): Not_active

SMILES: Cc1noc(-c2ccc(NC(=O)[C@@H]3CCCC[C@H]3C(=O)O)cc2)c1NC(=O)O[C@H](C)c1ccccc1Cl
inhibition at 50 µM (BSEP): 66%

SMILES: Cc1noc(-c2ccc(NC(=O)[C@H]3CCCC[C@@H]3C(=O)O)cn2)c1NC(=O)O[C@H](C)c1ccccc1Cl
clearance [4]: 6.96 mL/min/kg
AUClast [5]: 44200 h/ng/mL
pIC50 (Bile salt export pump [6]): 4.30
chromatographic logD [1]: 1.52
ED50 (Mus musculus): 0.1 mg/kg
fAUClast [7]: 262 h/ng/mL
fAUClast [8]: 1249 h/ng/mL
inhibition at 50 µM (BSEP): 50%
bioavailability [9]: 66%
Tlast [10]: 8 h
Cmax [11]: 4230 ng/mL
solubility [12]: 458 µM (≈ 242 µg/mL)
AUClast [13]: 8000 h/ng/mL
half-life [14]: 0.69 h
Vd [15]: 0.24 L/kg
microsomal CLint at 0.5 µM [2]: 6.3 µL/min/mg
Tlast [16]: 24 h
fCmax [17]: 749 ng/mL
pIC50 [18]: 7.50
fCmax [19]: 139 ng/mL
microsomal CLint at 0.5 µM [3]: 4 µL/min/mg
Cmax [20]: 26500 ng/mL

SMILES: Cc1nc(-c2onc(C)c2Nc2cncc(OC3CC3)n2)ccc1NC(=O)[C@H]1CCCC[C@@H]1C(=O)O
inhibition (INH) (Bile salt export pump [22]): Not_active

SMILES: Cc1nc(-c2ncccc2NC(=O)O[C@H](C)c2ccccc2Cl)ccc1NC(=O)[C@H]1CCCC[C@@H]1C(=O)O
inhibition (INH) (Bile salt export pump [22]): Not_active

SMILES: CCNc1cncc(Nc2c(C)noc2-c2ccc(NC(=O)[C@H]3CCCC[C@@H]3C(=O)O)c(C)n2)n1
inhibition (INH) (Bile salt export pump [22]): Not_active

More lines, main results first:

chromatographic logD [1]: 1.39
microsomal CLint at 0.5 µM [2]: 2.84 µL/min/mg
microsomal CLint at 0.5 µM [3]: 19.5 µL/min/mg
SMILES: Cc1noc(-c2ccc(NC(=O)[C@H]3CCCC[C@@H]3C(=O)O)cc2)c1NC(=O)O[C@H](C)c1ccccc1Cl
inhibition at 50 µM (BSEP): 72%

clearance [4]: 2.05 mL/min/kg
AUClast [5]: 109000 h/ng/mL
chromatographic logD [1]: 0.86
fAUClast [7]: 3846 h/ng/mL
fAUClast [8]: 3105 h/ng/mL
bioavailability [9]: 45%
Tlast [10]: 8 h
Cmax [11]: 10300 ng/mL
solubility [12]: 644 µM (≈ 318 µg/mL)
AUClast [13]: 24800 h/ng/mL
half-life [14]: 1.96 h
Vd [15]: 0.16 L/kg
microsomal CLint at 0.5 µM [2]: < 2 µL/min/mg
Tlast [16]: 8 h
fCmax [17]: 1726 ng/mL
pIC50 [18]: 7.40
fCmax [19]: 1597 ng/mL
microsomal CLint at 0.5 µM [3]: 11 µL/min/mg
Cmax [20]: 60600 ng/mL
SMILES: Cc1nc(-c2onc(C)c2Nc2cncc(OC(C)C)n2)ccc1NC(=O)[C@H]1CCCC[C@@H]1C(=O)O
pIC50 (Bile salt export pump [6]): < 4.00
inhibition at 50 µM (BSEP): 18%

clearance [4]: 1.75 mL/min/kg
Drug uptake [21]: Active
AUClast [5]: 315000 h/ng/mL
chromatographic logD [1]: 1.27
fAUClast [7]: 3967 h/ng/mL
fAUClast [8]: 7686 h/ng/mL
bioavailability [9]: 100%
Tlast [10]: 8 h
Cmax [11]: 17700 ng/mL
solubility [12]: 641 µM (≈ 325 µg/mL)
AUClast [13]: 57300 h/ng/mL
half-life [14]: 1.81 h
Vd [15]: 0.2 L/kg
microsomal CLint at 0.5 µM [2]: 2.3 µL/min/mg
Tlast [16]: 24 h
fCmax [17]: 2189 ng/mL
pIC50 [18]: 7.90
fCmax [19]: 1225 ng/mL
microsomal CLint at 0.5 µM [3]: 3.5 µL/min/mg
Cmax [20]: 89700 ng/mL
SMILES: Cc1nc(-c2onc(C)c2NC(=O)O[C@H](C)c2ccccc2)ccc1NC(=O)[C@H]1CCCC[C@@H]1C(=O)O
pIC50 (Bile salt export pump [6]): 4.00
ED50 (Mus musculus): 0.1 mg/kg
inhibition at 50 µM (BSEP): 28%

chromatographic logD [1]: 1.69
solubility [12]: 509 µM (≈ 282 µg/mL)
microsomal CLint at 0.5 µM [2]: < 2 µL/min/mg
microsomal CLint at 0.5 µM [3]: 4 µL/min/mg
SMILES: Cc1cc(NC(=O)[C@H]2CCCC[C@@H]2C(=O)O)c(C)nc1-c1onc(C)c1NC(=O)O[C@H](C)c1ccccc1Cl
inhibition at 50 µM (BSEP): 73%

chromatographic logD [1]: 1.69
solubility [12]: 525 µM (≈ 292 µg/mL)
microsomal CLint at 0.5 µM [2]: 7 µL/min/mg
microsomal CLint at 0.5 µM [3]: 11.8 µL/min/mg
SMILES: Cc1nc(-c2onc(C)c2CNC(=O)O[C@H](C)c2ccccc2Cl)ccc1NC(=O)[C@H]1CCCC[C@@H]1C(=O)O
inhibition at 50 µM (BSEP): 82%

chromatographic logD [1]: 1.55
solubility [12]: 503 µM (≈ 280 µg/mL)
microsomal CLint at 0.5 µM [2]: 7.6 µL/min/mg
microsomal CLint at 0.5 µM [3]: 7.6 µL/min/mg
SMILES: Cc1nc(-c2snc(C)c2NC(=O)O[C@H](C)c2ccccc2Cl)ccc1NC(=O)[C@H]1CCCC[C@@H]1C(=O)O
inhibition at 50 µM (BSEP): 64%

chromatographic logD [1]: 1.36
solubility [12]: 519 µM (≈ 245 µg/mL)
microsomal CLint at 0.5 µM [2]: 3.1 µL/min/mg
microsomal CLint at 0.5 µM [3]: 3.7 µL/min/mg
SMILES: CCC[C@@H](C)OC(=O)Nc1c(C)noc1-c1ccc(NC(=O)[C@H]2CCCC[C@@H]2C(=O)O)c(C)n1
inhibition at 50 µM (BSEP): 48%
